Earlier results as cited in patent US20160271121A1, “ANTIFUNGAL COMBINATION THERAPY” (Gavis Pharmaceuticals, priority 2015, published 2016).

Legend:
reference strains = details: in vitro, versus other antifungals
onychomycosis = details: 48 weeks of topical efinaconazole

C=C1CCN([C@H](C)[C@](O)(Cn2cncn2)c2ccc(F)cc2F)CC1 [Efinaconazole, (2R,3R)-2-(2,4-difluorophenyl)-3-(4-methylenepiperidin-1-yl)-1-(1H-1,2,4-triazol-1-yl)butan-2-ol]
potency in broth dilution tests (reference strains): more potent than terbinafine, ciclopirox, itraconazole, and amorolfine
mycological cure rate compared with other antifungal agents (onychomycosis): more than that for 48 weeks of topical ciclopirox and comparable to 12 weeks of oral itraconazole
